The assay concerns mouse lung fibroblasts. In words: FasL-induced cell death of TGF-β1-stimulated mouse lung fibroblasts. The class given is cell-based. Particulars: wild-type cells, TGF-β1 stimulation; FasL 200 ng/ml. The source says:
FIG. 2. CD148 deficiency in fibroblasts worsens pulmonary fibrosis in bleomycin-treated mice and increases fibroblast activation in response to TGF-β1. CD148 fibroblast-specific knockout mice (Ptprj^fl/fl Col1a2^Cre-ER(T)+/0 were developed as described in Methods. (A) Ptprj^fl/fl Col1a2^Cre-ER(T)+/0 mice or Col1a2^Cre-ER(T)+/0 (wild type) mice were exposed to BLM to induce lung fibrosis. At day 21, mouse lungs were harvested and stained with Masson's trichrome (n=3 for saline and n=5 for BLM groups). (B) Hydroxyproline content was measured in the left lung of Ptprj^fl/fl Col1a2^Cre-ER(T)+/0 mice (n=12) and Col1a2^Cre-ER(T)+/0 (WT) mice (n=12) exposed to BLM, and Ptprj^fl/fl Col1a2^Cre-ER(T)+/0 (n=6) and Col1a2^Cre-ER(T)+/0 (n=6) exposed to saline; at day 21. (C) Relative survival at day 0-21 after BLM. (D-E), α-SMA and CD148 expression in harvested lungs were measured by western blot (n=3-5 for each condition). (F-G) Gene expression of Fn and Col1a1, and Ctgf in harvested lungs was measured using qPCR (n=5 for each condition). […] (I) mRNA levels of Col1a1 and Fn were measured by qPCR (n=5 for each condition). […] Gel contractility was measured at 0, 12 and 24 h after TGF-β1 (10 ng/ml) stimulation (n=6 for each condition). […] At 24 h, cell viability was measured with MTT assay (n=5 for each condition). […]

Data on one substance can be found in patent US20260297164A1, “ANTI-FIBROTIC PEPTIDES AND USES THEREOF” (Deackt, Inc., priority 2021, published 2026).

For TGF-β1, the “FasL-induced cell death and apoptosis” value is listed as “induced resistance”.
